Test results as given in US10835575B2, “Compositions and methods for treating disease using Salmonella T3SS effector protein (SipA)” (University of Massachusetts, priority 2013, dated 2020).

What was measured:
CT26 tumors = assay: Subcutaneous CT26 murine colon cancer model, tumor volume; type: in vivo, Balb/c mice; conditions: doxorubicin alone, 10 mg/kg
Excerpt: (§1) FIG. 6A-D. The combined effects of SipA-AuNPs and exogenous doxorubicin prevent tumor growth. (FIG. 6A) Balb/c mice bearing subcutaneous CT26 tumors (mean tumor volumes of approximately 0.5 mm^3) received IP treatments for 15 days as described in the Materials and Methods section, (▪) Untreated, (●) AuNP alone, (▴A) SipA-AuNPs, (♦) Doxorubicin or (□) SipA-AuNP plus Doxorubicin (DOX). SipA-AuNPs conjugates improve the efficacy of doxorubicin. (*P<0.0001). (FIG. 6B) Accumulation of gold nanoparticles in the tumors shown in (FIG. 6A) was evaluated by SEM and X-ray microanalysis. Color intensity represents tumor penetration. The sections of tumor were imaged for X-ray analysis and X-ray mapping as described in the Materials and Methods section. (FIG. 6C) P-gp expression in the tumors shown in (FIG. 6A) was evaluated by western blot. Tumors were homogenized and lysed. Whole cell lysates were normalized for protein levels and probed for P-gp. Levels of P-gp were quantified by densitometry and presented on the bar cart. Densitometry was performed using ImageJ and results are presented as relative to the untreated cells. […] Levels of P-gp were quantified by densitometry and presented on the bar graph. […]
The subcutaneous tumor model. […] Tumor size was measured using calipers and volumes were estimated using the formula 0.5×length×(width)^2. […]

P-gp [1] = assay: P-gp expression in MCF-7 breast adenocarcinoma cells, Western blot; type: cell-based, human; conditions: MCF-7 cells, 80 or 160 μg/ml purified SipA, 3 h, compared to buffer control
Description: (§2) FIG. 3A-B. SipA-induced, dose-dependent P-gp down-regulation is conserved in other cancer cell types. (FIG. 3A) MCF-7 breast adenocarcinoma cells were left untreated (−) or exposed to 80 μg/ml or 160 μg/ml of purified SipA for 3 h. Normalized whole cell lysates were then probed for P-gp and GAPDH. Densitometry was analyzed by ImageJ and presented as relative to the untreated cells. (FIG. 3B) UM-UC-3 human bladder carcinoma cells were left untreated or exposed to 80 μg/ml or 160 μg/ml of purified SipA for 3 h, and then probed and analyzed as in (FIG. 3A).
(§3) Cell culture. The human intestinal adenocarcinoma cell line HCT8 were maintained in accordance with (8). The human breast adenocarcinoma cell line MCF-7, the human bladder transitional cell carcinoma cell line UM-UC-3, and the CT26 murine colon carcinoma cell line, were purchased from ATCC and were all maintained in DMEM F-12 containing a 10% fetal bovine serum, 100 U/ml penicillin, and 10 μg/ml streptomycin at 37° C. in 90% relative humidity and 5% CO2.
(§4) Cell lysates and Western Blot analysis. Cell lysates were harvested from S. Typhimurium-infected HCT8 cells, as previously described (8). Proteins were normalized to 30 μg, separated by SDS/PAGE (4-12% gradient; Biorad, Hercules, Calif.), and transferred to nitrocellulose (Bio-Rad; 0.45μ membrane). […]

P-gp [2] = assay: P-gp expression in HCT8 cell monolayers, Western blot; type: cell-based, human
Description: FIG. 5A-B. SipA-AuNPs decrease the expression of P-gp at a SipA dose nearly 500 times lower than free SipA. (FIG. 5A) Schematic presentation of P-gp knockdown mechanism via SipA-AuNP. (FIG. 5B) HCT8 cell monolayers were left untreated (−), exposed to […] 160 μg/ml of purified SipA, AuNP alone or AuNP-SipA (0.72 μg/ml of SipA).
as §3
as §4, with “membrane). Immuno-blots were performed using the murine monoclonal P-gp C219 antibody (calbiochem) diluted at 1:100.” for “membrane).”

P-gp [3] = assay: P-gp expression in UM-UC-3 bladder carcinoma cells, Western blot; type: cell-based, human; conditions: UM-UC-3 cells, 80 or 160 μg/ml purified SipA, 3 h
Description: as §2, §3, §4

PERP [4] = assay: PERP protein expression in human colonic cancers in vitro; type: cell-based
Excerpt: (§5) In a further embodiment, SipA increases the level of expression of PERP in cells, PERP is a tetraspan membrane protein originally identified as a transcriptional target of the p53 tumor suppressor (10). P53 regulates the cell cycle and, thus, functions as a tumor suppressor that is involved in preventing cancer. As such, p53 has been described as “the guardian of the genome”, referring to its role in conserving stability by preventing genome mutation. Fundamental to the tumor-suppressor role of p53 is the ability to engage in apoptosis. […] Studies investigating the interaction of SipA with the surface epithelial cells have been carried out (13, 14). The inventors used a split-ubiquitin based yeast-two hybrid analysis system (Dualsystems Biotech) with full length SipA as bait and a human cancer colon mRNA-based library as prey, to identify PERP, a p53 induced apoptotic effector, as a SipA interacting partner. […] While an understanding of the mechanism is not necessary, and without limiting the invention to any particular mechanism, and although the precise function of PERP in eliciting an apoptotic response remains unknown, initial reports indicate that PERP expression causes nuclear localization of p53 and increases the level of transcriptionally active p53 protein. […] Including increased protein stability, postranslational modifications, and enhanced nuclear accumulation. […]

PERP [5] = target: T1, PERP (Homo sapiens, UniProt Q96FX8); assay: Split-ubiquitin yeast-two hybrid analysis with full length SipA as bait; type: binding; conditions: human cancer colon mRNA-based library as prey; epithelial surfaces
T1 construct: host or cells: yeast (split-ubiquitin two-hybrid system)
Excerpt: as §5

P-gp [6] = assay: Colonic P-gp expression in mice colonized with S. Typhimurium strains; type: in vivo, Balb/c mice; conditions: SipA over-expressing strain (AJK63) vs isogenic SipA mutant strain (EE633), proximal colon, 48 hours
Excerpt: as §1, with “Whole cell lysates were normalized for protein levels and probed for P-gp.” left out, “cart.” for “cart. Densitometry was performed using ImageJ and results are presented as relative to the untreated cells.”
Since normal healthy intestinal epithelium display baseline expression of P-gp, the inventors evaluated the colonic expression of P-gp in mice colonized with a S. Typhimurium strain that over-expresses SipA (AJK63) compared to mice colonized with an equivalent amount of an isogenic SipA mutant strain (EE633). […]

Chain of P-gp (P08183 whole entry): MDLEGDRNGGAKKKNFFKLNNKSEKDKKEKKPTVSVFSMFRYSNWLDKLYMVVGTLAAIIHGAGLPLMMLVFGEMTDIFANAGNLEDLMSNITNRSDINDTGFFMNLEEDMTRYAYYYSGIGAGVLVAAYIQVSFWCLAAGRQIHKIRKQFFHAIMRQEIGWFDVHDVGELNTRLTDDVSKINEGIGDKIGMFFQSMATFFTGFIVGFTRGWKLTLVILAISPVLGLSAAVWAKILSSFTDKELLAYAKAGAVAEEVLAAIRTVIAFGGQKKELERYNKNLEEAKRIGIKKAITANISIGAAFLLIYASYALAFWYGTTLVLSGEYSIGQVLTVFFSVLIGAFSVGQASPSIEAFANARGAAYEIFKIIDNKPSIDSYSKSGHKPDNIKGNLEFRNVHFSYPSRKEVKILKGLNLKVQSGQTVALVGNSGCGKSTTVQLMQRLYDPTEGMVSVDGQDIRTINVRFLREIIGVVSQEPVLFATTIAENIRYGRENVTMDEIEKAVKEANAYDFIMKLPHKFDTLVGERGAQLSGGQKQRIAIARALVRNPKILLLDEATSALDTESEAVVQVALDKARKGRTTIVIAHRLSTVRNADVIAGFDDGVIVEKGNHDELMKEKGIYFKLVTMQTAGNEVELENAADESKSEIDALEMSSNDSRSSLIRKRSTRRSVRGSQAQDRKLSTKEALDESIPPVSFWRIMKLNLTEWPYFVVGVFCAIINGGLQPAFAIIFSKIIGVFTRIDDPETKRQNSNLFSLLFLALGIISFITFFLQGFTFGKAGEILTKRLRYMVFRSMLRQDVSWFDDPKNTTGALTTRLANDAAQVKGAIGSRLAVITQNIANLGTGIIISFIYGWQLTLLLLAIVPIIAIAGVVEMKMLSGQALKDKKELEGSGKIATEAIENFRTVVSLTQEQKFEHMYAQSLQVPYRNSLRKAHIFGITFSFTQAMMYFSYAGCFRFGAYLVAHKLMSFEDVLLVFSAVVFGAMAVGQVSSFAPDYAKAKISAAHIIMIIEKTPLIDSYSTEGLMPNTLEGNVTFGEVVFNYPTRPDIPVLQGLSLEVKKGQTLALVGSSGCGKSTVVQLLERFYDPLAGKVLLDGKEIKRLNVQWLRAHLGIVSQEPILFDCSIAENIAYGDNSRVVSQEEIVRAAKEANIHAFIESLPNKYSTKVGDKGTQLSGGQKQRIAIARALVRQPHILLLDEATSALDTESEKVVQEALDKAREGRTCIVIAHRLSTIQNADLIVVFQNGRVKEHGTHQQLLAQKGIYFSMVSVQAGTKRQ
T1 sequence (Q96FX8 whole entry): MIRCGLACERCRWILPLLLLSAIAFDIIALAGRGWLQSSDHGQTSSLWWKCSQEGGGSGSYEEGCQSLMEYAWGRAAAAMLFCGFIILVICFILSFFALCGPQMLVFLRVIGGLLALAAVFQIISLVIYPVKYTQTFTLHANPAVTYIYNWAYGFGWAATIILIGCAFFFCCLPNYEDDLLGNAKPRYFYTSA

## COc1cccc2c1C(=O)c1c(O)c3c(c(O)c1C2=O)C[C@@](O)(C(=O)CO)C[C@@H]3O[C@H]1C[C@H](N)[C@H](O)[C@H](C)O1 [doxorubicin]
CT26 tumors
  effect on tumor size: minimal effect on tumor size

## SipA: Salmonella Typhimurium type III secreted effector protein, SEQ ID NO:01; purified as SipA-HA fusion protein
P-gp [1]
  reduction of P-gp expression: 40%
P-gp [2]; HCT8 monolayers, 80 μg/ml or 160 μg/ml purified SipA-HA, 3 hours
  modulation of P-gp expression: dose dependent ability to modulate P-gp to the same degree as wild-type S. Typhimurium
P-gp [3]
  reduction of P-gp expression: 95%
PERP [4]
  PERP protein expression: up-regulates the protein expression of PERP
PERP [5]
  interaction with PERP: bind to PERP at epithelial surfaces
P-gp [6]
  expression of P-gp in healthy murine intestinal epithelium: could modulate the expression of P-gp in healthy murine intestinal epithelium in vivo

## lipopolysaccharide [reference compound]
P-gp [2]; HCT8, purified LPS from S. typhimurium 0.1 to 100 μg/ml, 3 h
  modulation of P-gp by lipopolysaccharide: not attributed to trace amounts of lipopolysaccharide
